Each molecule was assayed against PTK2 (human) (UniProt Q05397) (assay: radiometric filter-binding kinase assay, Kinase HotSpot). Settings: compound 0.5 µM; ATP 10 µM.
Sequence of PTK2 (human) (Q05397 whole entry, looked up): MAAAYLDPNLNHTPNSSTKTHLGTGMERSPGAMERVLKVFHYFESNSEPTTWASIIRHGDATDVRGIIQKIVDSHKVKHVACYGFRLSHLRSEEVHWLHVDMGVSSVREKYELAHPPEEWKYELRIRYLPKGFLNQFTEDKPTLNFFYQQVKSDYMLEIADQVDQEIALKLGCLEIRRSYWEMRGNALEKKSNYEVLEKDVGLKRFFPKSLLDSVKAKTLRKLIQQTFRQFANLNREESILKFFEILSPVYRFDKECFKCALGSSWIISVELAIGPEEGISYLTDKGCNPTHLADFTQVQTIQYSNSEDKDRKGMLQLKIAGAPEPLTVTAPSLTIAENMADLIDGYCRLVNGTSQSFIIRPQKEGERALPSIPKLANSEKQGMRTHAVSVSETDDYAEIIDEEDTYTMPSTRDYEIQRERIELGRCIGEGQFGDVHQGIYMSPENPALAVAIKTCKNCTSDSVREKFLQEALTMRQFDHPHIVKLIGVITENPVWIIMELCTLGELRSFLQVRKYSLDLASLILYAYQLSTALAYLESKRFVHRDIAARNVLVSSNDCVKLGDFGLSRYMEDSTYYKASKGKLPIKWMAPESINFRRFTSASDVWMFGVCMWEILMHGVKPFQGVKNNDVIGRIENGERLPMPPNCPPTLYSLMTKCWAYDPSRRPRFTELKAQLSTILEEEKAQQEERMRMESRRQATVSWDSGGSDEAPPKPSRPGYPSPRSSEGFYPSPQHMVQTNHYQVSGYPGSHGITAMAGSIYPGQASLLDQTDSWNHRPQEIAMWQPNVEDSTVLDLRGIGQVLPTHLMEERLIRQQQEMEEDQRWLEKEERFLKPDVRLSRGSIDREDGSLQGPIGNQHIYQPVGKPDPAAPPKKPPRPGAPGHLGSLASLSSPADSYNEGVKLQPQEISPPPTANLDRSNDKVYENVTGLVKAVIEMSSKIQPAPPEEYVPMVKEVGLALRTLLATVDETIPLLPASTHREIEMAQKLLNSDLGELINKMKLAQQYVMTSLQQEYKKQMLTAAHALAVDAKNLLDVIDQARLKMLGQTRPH
Work on `N#Cc1c(NC(=O)c2cccc3ccccc23)sc2c1CCCC2` yielded a residual activity of 101%.
Molecule `COc1cc2ncnc(Nc3ccc(O)c(Br)c3)c2cc1OC` has a residual activity of 99.5%.
`CCOc1cc2ncnc(Nc3cccc(Br)c3)c2cc1OCC` was tested, and the residual activity was 101%.

What follows are molecules tested against HIPK4 (human) (UniProt Q8NE63) in the same assay as above. Settings: compound 0.5 µM; ATP 10 µM.
With `O=C(O)c1ccc2c3c1cccc3c(=O)n1c3ccccc3nc21` the residual activity was 86.9%.
With `Cc1cc(Nc2nc(-c3ccccc3)nc3ccccc23)n[nH]1` the residual activity was 102%.
In the case of `N#Cc1c(NC(=O)c2cccc3ccccc23)sc2c1CCCC2`, the residual activity is reported as 110%.
`COc1cc2ncnc(Nc3ccc(O)c(Br)c3)c2cc1OC` showed a residual activity of 107%.
`CCOc1cc2ncnc(Nc3cccc(Br)c3)c2cc1OCC` showed a residual activity of 89.9%.

Each molecule was assayed against CDK1 CCNA2 (human) (UniProt P06493+P20248) in the same assay as above. Settings: compound 0.5 µM; ATP 10 µM.
Sequence of CDK1 CCNA2 (human) (P06493 whole entry, looked up): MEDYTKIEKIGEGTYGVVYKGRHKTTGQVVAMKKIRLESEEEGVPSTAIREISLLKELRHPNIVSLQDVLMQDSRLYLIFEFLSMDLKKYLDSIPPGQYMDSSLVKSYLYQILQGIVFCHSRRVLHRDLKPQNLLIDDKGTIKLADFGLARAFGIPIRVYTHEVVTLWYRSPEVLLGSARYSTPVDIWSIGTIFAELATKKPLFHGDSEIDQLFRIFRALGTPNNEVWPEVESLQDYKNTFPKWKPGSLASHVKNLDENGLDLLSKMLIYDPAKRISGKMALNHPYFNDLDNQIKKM
Sequence of CDK1 CCNA2 (human) (P20248 whole entry, looked up): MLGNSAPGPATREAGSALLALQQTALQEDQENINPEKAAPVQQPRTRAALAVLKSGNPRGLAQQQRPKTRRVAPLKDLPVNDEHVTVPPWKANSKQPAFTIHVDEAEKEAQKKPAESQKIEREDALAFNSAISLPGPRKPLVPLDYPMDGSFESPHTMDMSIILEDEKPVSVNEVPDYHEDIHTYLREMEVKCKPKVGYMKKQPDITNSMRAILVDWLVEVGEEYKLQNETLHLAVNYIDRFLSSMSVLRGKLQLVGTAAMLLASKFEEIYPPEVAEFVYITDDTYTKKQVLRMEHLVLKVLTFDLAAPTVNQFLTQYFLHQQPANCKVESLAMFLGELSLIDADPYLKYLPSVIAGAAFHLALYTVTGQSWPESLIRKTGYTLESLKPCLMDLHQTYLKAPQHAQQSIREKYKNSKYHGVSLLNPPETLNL
For `O=C(O)c1ccc2c3c1cccc3c(=O)n1c3ccccc3nc21`, the residual activity was 78.1%.
`Cc1cc(Nc2nc(-c3ccccc3)nc3ccccc23)n[nH]1` showed a residual activity of 95%.
For `N#Cc1c(NC(=O)c2cccc3ccccc23)sc2c1CCCC2`, the residual activity was 92.1%.
Work on `COc1cc2ncnc(Nc3ccc(O)c(Br)c3)c2cc1OC` yielded a residual activity of 101%.
`CCOc1cc2ncnc(Nc3cccc(Br)c3)c2cc1OCC` gave a residual activity of 94.7%.

What follows are molecules tested against FGFR1 (human) (UniProt P11362) in the same assay as above. Settings: compound 0.5 µM; ATP 10 µM.
Sequence of FGFR1 (human) (P11362 whole entry, looked up): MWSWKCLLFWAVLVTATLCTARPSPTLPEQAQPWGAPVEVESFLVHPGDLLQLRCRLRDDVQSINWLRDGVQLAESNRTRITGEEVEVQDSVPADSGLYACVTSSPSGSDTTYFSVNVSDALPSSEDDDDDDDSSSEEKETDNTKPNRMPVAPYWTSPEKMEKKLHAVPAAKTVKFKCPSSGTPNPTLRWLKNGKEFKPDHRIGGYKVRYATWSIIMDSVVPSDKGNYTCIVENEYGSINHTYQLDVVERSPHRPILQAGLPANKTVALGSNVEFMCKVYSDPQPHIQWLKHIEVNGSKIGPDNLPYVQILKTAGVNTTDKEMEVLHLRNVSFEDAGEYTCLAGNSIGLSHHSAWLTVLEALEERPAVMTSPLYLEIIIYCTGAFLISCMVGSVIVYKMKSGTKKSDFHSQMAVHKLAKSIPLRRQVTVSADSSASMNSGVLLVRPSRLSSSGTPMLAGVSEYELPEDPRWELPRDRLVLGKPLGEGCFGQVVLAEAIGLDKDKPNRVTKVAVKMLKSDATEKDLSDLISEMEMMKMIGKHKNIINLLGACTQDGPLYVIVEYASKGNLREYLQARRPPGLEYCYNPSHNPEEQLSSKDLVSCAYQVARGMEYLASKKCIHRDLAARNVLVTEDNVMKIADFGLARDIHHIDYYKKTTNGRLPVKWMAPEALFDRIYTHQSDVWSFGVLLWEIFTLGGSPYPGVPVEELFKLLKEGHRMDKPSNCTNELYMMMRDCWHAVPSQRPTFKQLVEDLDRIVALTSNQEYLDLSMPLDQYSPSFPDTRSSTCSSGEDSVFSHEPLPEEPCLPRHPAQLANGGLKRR
For `O=C(O)c1ccc2c3c1cccc3c(=O)n1c3ccccc3nc21`, the residual activity was 84.7%.
`Cc1cc(Nc2nc(-c3ccccc3)nc3ccccc23)n[nH]1` showed a residual activity of 48.8%.
Molecule `N#Cc1c(NC(=O)c2cccc3ccccc23)sc2c1CCCC2` has a residual activity of 105%.
For `COc1cc2ncnc(Nc3ccc(O)c(Br)c3)c2cc1OC`, the residual activity was 93.4%.
`CCOc1cc2ncnc(Nc3cccc(Br)c3)c2cc1OCC` gave a residual activity of 90.9%.

What follows are molecules tested against STK3 (human) (UniProt Q13188) in the same assay as above. Settings: compound 0.5 µM; ATP 10 µM.
Sequence of STK3 (human) (Q13188 whole entry, looked up): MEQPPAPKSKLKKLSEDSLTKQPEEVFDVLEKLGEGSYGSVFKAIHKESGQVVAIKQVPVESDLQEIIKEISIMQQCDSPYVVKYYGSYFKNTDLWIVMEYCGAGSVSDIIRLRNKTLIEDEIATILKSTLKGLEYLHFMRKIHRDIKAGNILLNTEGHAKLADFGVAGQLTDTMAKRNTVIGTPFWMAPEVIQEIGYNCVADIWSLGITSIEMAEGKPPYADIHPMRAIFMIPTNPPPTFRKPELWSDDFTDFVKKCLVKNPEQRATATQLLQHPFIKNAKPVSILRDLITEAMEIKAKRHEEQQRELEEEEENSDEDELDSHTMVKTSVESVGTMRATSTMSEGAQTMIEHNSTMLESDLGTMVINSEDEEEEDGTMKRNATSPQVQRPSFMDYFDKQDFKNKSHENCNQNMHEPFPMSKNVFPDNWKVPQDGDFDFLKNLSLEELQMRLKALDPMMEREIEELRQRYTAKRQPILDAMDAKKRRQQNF
Molecule `O=C(O)c1ccc2c3c1cccc3c(=O)n1c3ccccc3nc21` has a residual activity of 97.1%.
Molecule `Cc1cc(Nc2nc(-c3ccccc3)nc3ccccc23)n[nH]1` has a residual activity of 58.5%.
`N#Cc1c(NC(=O)c2cccc3ccccc23)sc2c1CCCC2` was tested, and the residual activity was 111%.
Molecule `COc1cc2ncnc(Nc3ccc(O)c(Br)c3)c2cc1OC` has a residual activity of 89.6%.
`CCOc1cc2ncnc(Nc3cccc(Br)c3)c2cc1OCC` was tested, and the residual activity was 99.5%.

The molecules below were run against AKT1 (human) (UniProt P31749) in the same assay as above. Settings: compound 0.5 µM; ATP 10 µM.
Molecule `O=C(O)c1ccc2c3c1cccc3c(=O)n1c3ccccc3nc21` has a residual activity of 101%.
`Cc1cc(Nc2nc(-c3ccccc3)nc3ccccc23)n[nH]1` was tested, and the residual activity was 107%.
For `N#Cc1c(NC(=O)c2cccc3ccccc23)sc2c1CCCC2`, the residual activity was 101%.
`COc1cc2ncnc(Nc3ccc(O)c(Br)c3)c2cc1OC` gave a residual activity of 94%.
In the case of `CCOc1cc2ncnc(Nc3cccc(Br)c3)c2cc1OCC`, the residual activity is reported as 112%.

The molecules below were run against HIPK3 (human) (UniProt Q9H422) in the same assay as above. Settings: compound 0.5 µM; ATP 10 µM.
Sequence of HIPK3 (human) (Q9H422 whole entry, looked up): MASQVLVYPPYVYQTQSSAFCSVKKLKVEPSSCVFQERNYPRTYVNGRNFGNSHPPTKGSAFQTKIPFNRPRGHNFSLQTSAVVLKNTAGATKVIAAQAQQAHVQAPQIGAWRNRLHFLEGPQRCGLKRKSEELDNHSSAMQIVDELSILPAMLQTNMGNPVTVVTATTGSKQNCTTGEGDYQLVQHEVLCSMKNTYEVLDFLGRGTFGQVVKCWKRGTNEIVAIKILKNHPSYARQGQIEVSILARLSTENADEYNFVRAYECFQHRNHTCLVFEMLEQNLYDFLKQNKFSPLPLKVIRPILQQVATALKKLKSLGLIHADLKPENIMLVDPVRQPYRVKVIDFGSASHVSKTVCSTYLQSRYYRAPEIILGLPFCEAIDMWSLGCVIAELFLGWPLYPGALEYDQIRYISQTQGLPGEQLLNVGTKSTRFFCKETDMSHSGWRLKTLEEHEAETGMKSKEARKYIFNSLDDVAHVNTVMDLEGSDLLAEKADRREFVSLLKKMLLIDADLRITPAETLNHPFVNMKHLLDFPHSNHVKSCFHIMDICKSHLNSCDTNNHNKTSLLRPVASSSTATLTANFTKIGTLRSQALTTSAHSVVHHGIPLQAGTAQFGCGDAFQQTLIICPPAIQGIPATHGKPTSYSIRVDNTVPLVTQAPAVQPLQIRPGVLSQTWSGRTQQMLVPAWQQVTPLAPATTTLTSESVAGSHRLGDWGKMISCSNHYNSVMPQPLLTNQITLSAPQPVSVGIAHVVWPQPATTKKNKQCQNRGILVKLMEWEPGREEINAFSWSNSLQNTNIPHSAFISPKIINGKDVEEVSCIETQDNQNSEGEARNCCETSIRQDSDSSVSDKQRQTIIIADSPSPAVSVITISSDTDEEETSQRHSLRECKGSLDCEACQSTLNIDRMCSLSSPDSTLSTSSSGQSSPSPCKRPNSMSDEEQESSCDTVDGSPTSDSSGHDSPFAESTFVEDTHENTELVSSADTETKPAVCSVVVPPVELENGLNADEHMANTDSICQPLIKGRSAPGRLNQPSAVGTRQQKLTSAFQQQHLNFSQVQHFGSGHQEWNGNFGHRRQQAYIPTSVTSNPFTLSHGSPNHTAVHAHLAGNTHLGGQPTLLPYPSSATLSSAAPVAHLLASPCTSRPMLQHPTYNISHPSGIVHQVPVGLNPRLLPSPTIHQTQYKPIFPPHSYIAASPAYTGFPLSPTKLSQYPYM
`O=C(O)c1ccc2c3c1cccc3c(=O)n1c3ccccc3nc21` showed a residual activity of 103%.
`Cc1cc(Nc2nc(-c3ccccc3)nc3ccccc23)n[nH]1` was tested, and the residual activity was 88.5%.
Molecule `N#Cc1c(NC(=O)c2cccc3ccccc23)sc2c1CCCC2` has a residual activity of 116%.
`COc1cc2ncnc(Nc3ccc(O)c(Br)c3)c2cc1OC` gave a residual activity of 67.7%.
With `CCOc1cc2ncnc(Nc3cccc(Br)c3)c2cc1OCC` the residual activity was 102%.

The molecules below were run against CDK9 CCNK (human) (UniProt O75909+P50750) in the same assay as above. Settings: compound 0.5 µM; ATP 10 µM.
Molecule `O=C(O)c1ccc2c3c1cccc3c(=O)n1c3ccccc3nc21` has a residual activity of 76.4%.
Molecule `Cc1cc(Nc2nc(-c3ccccc3)nc3ccccc23)n[nH]1` has a residual activity of 89.8%.
`N#Cc1c(NC(=O)c2cccc3ccccc23)sc2c1CCCC2` was tested, and the residual activity was 90.5%.
`COc1cc2ncnc(Nc3ccc(O)c(Br)c3)c2cc1OC` gave a residual activity of 91.1%.
For `CCOc1cc2ncnc(Nc3cccc(Br)c3)c2cc1OCC`, the residual activity was 102%.

These molecules were tested against RPS6KA2 KD1 KD2 (human) (UniProt Q15349) in the same assay as above. Settings: compound 0.5 µM; ATP 10 µM.
Sequence of RPS6KA2 KD1 KD2 (human) (Q15349 whole entry, looked up): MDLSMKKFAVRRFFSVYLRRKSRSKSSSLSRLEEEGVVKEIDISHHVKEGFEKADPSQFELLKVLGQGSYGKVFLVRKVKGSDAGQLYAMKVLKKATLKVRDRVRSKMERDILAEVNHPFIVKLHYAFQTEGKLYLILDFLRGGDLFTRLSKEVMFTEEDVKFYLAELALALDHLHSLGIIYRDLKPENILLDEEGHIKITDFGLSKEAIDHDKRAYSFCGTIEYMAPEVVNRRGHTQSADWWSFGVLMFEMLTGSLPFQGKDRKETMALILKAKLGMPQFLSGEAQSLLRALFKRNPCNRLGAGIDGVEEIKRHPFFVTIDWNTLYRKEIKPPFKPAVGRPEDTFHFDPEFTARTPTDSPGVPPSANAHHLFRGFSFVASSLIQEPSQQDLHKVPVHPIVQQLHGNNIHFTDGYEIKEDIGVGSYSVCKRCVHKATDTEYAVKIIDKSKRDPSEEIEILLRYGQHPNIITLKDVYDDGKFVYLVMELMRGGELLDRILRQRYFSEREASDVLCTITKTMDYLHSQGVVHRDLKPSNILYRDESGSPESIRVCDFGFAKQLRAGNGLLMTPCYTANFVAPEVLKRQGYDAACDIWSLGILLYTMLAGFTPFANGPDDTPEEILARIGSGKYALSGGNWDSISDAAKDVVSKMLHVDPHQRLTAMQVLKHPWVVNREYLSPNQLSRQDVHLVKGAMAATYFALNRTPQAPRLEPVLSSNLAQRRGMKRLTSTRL
In the case of `O=C(O)c1ccc2c3c1cccc3c(=O)n1c3ccccc3nc21`, the residual activity is reported as 90.5%.
`Cc1cc(Nc2nc(-c3ccccc3)nc3ccccc23)n[nH]1` showed a residual activity of 50.7%.
`N#Cc1c(NC(=O)c2cccc3ccccc23)sc2c1CCCC2` showed a residual activity of 95.3%.
`COc1cc2ncnc(Nc3ccc(O)c(Br)c3)c2cc1OC` gave a residual activity of 63.6%.
In the case of `CCOc1cc2ncnc(Nc3cccc(Br)c3)c2cc1OCC`, the residual activity is reported as 74.5%.

Each molecule was assayed against FRK (human) (UniProt P42685) in the same assay as above. Settings: compound 0.5 µM; ATP 10 µM.
Molecule `O=C(O)c1ccc2c3c1cccc3c(=O)n1c3ccccc3nc21` has a residual activity of 97.6%.
`Cc1cc(Nc2nc(-c3ccccc3)nc3ccccc23)n[nH]1` showed a residual activity of 72.5%.
For `N#Cc1c(NC(=O)c2cccc3ccccc23)sc2c1CCCC2`, the residual activity was 104%.
Molecule `COc1cc2ncnc(Nc3ccc(O)c(Br)c3)c2cc1OC` has a residual activity of 74.7%.
`CCOc1cc2ncnc(Nc3cccc(Br)c3)c2cc1OCC` showed a residual activity of 85.9%.

The molecules below were run against MAP2K1 (human) (UniProt Q02750) in the same assay as above. Settings: compound 0.5 µM; ATP 10 µM.
`O=C(O)c1ccc2c3c1cccc3c(=O)n1c3ccccc3nc21` gave a residual activity of 93.7%.
For `Cc1cc(Nc2nc(-c3ccccc3)nc3ccccc23)n[nH]1`, the residual activity was 91.6%.
`N#Cc1c(NC(=O)c2cccc3ccccc23)sc2c1CCCC2` gave a residual activity of 98.4%.

Reference: the kinase profiling compilation of Christmann-Franck et al. (2016)
